From the Deep4Chem optical property database
Each block holds one molecule with its values, some of them ahead of it.

Experiment: solvent given as SMILES

absorption maximum (in CC#N): 371 nm
absorption maximum (in CCCCCC): 371 nm
SMILES: C(=C\c1ccc2ccccc2c1)/c1ccc(N(c2ccccc2)c2ccccc2)cc1

absorption maximum (in ClC(Cl)Cl): 608 nm
SMILES: CC1(C)c2ccccc2-c2ccc(N3c4ccc(-c5ccc(/C=C6\C(=O)c7ccc(C(=O)O)cc7C6=O)s5)cc4C4CCCC43)cc21 (stereo not drawn)

absorption maximum (in C1CCOC1): 532 nm
SMILES: Cc1ccsc1-c1cc2c3cc(-c4sccc4C)c4nc(C(F)(F)C(F)(F)C(F)(F)F)nc5c(-c6sccc6C)cc(c6cc(-c7sccc7C)c7nc(C(F)(F)C(F)(F)C(F)(F)F)nc1c7c26)c3c45

SMILES: CCCCC(CC)CN1C(=O)c2cc(Oc3ccc(C(C)(C)C)cc3)c3c4c(Cl)cc5c6c(cc(Cl)c(c7c(Oc8ccc(C(C)(C)C)cc8)cc(c2c37)C1=O)c64)C(=O)N(c1c(C(C)C)cccc1C(C)C)C5=O (stereo not drawn)
absorption maximum (in Cc1ccccc1): 560 nm

SMILES: CN(CC(O)c1cccc(O)c1)c1ccc([N+](=O)[O-])c(C2CC(c3cccc4ccccc34)=NN2c2ccccc2)c1 (stereo not drawn)
absorption maximum (in C1CCCCC1): 400 nm
absorption maximum (in C1CCOC1): 411 nm
absorption maximum (in C1COCCO1): 396 nm
absorption maximum (in CC#N): 402 nm
absorption maximum (in CC(C)O): 412 nm
absorption maximum (in CCOC(C)=O): 418 nm
absorption maximum (in CCOCC): 405 nm
absorption maximum (in CO): 409 nm
absorption maximum (in Cc1ccccc1): 414 nm
absorption maximum (in ClC(Cl)Cl): 369 nm
absorption maximum (in O): 406 nm

absorption maximum (in CS(C)=O): 399 nm
SMILES: O=c1c2cc(S(=O)(=O)Cl)ccc2[nH]c2ccc(S(=O)(=O)Cl)cc12

absorption maximum (in CC#N): 386 nm
absorption maximum (in CCO): 388 nm
absorption maximum (in O): 382 nm
SMILES: CC(=O)OC[C@@H]1O[C@H](N2C=CC3=Nc4nc(C)[n+](C)cc4CN3C2=O)[C@@H](O)[C@H]1O

SMILES: COc1ccc(C2=[N+]3C(=Nc4c(-c5cc(OC)c(OC)c(OC)c5)c(Br)c(-c5ccc(OC)cc5)n4[B-]3(F)F)C(c3cc(OC)c(OC)c(OC)c3)=C2Br)cc1
absorption maximum (in Cc1ccccc1): 689 nm

absorption maximum (in CCO): 644 nm
absorption maximum (in CO): 641 nm
absorption maximum (in CS(C)=O): 651 nm
absorption maximum (in O): 638 nm
SMILES: CN1/C(=C/C=C(/C=C/c2sc3ccccc3[n+]2C)c2cc(F)cc(F)c2)Sc2ccccc21

SMILES: CC(=O)[B-]1(C(C)=O)OC(C)=CC(c2ccc3ccccc3c2)=[O+]1
absorption maximum (in CC#N): 380 nm
absorption maximum (in ClC(Cl)(Cl)Cl): 380 nm

absorption maximum (in ClCCl): 377 nm
SMILES: CC(C)(C)c1ccc(-c2cc(-c3ccc(-c4cc(-c5ccc(C(C)(C)C)cc5)c(C(=O)N5CCOCC5)s4)s3)sc2C(=O)N2CCOCC2)cc1

absorption maximum (in CO): 820 nm
SMILES: CC1(C)C(/C=C/C2=C(Cl)C(=C/C=C3/N(CCCCS(=O)(=O)[O-])c4ccc5ccccc5c4C3(C)C)/CCC2)=[N+](CCCCS(=O)(=O)[O-])c2ccc3ccccc3c21

absorption maximum (in ClCCl): 410 nm
SMILES: CCCCCCCCOc1cc(/C=C/c2cc(OCCCCCCCC)c(/C=C/c3cc(OCCCCCCCC)c(Br)cc3OCCCCCCCC)cc2OCCCCCCCC)c(OCCCCCCCC)cc1Br

SMILES: CC(C)(C)c1ccc(-c2nc3c4ccc(-c5ccccc5)cc4c4cc(-c5ccccc5)ccc4c3n2-c2ccc(C(C)(C)C)cc2)cc1
absorption maximum (in C1CCOC1): 331 nm
absorption maximum (in C1COCCO1): 333 nm
absorption maximum (in CC#N): 329 nm
absorption maximum (in CCCCCC): 331 nm
absorption maximum (in CCCCOCCCC): 331 nm
absorption maximum (in CCN(CC)CC): 332 nm
absorption maximum (in CCOC(C)=O): 329 nm
absorption maximum (in CCOCC): 330 nm
absorption maximum (in CN(C)C=O): 331 nm
absorption maximum (in Cc1ccccc1): 333 nm
absorption maximum (in ClC=C(Cl)Cl): 332 nm
absorption maximum (in ClCCl): 330 nm

absorption maximum (in C1CCCCC1): 390 nm
SMILES: CCOC(=O)c1cc(C)n2nc(-c3ccccc3)ccc12

absorption maximum (in CCCCCCC): 381 nm
SMILES: c1ccc2c3c(ccc2c1)-c1cc2ccccc2c2cccc-3c12

absorption maximum (in C1CCOC1): 497 nm
SMILES: CCOC(=O)c1ccc(C2=CC3=c4cc(-c5ccc(C(=O)OCC)cc5)c5nc(C(F)(F)C(F)(F)C(F)(F)F)nc6c(-c7ccc(C(=O)OCC)cc7)cc(c4c65)C4=CC(c5ccc(C(=O)OCC)cc5)=C5N=C(C(F)(F)C(F)(F)C(F)(F)F)N=C2C5C43)cc1 (stereo not drawn)

absorption maximum (in ClCCl): 409 nm
SMILES: CN(C)c1ccc(/C=C/c2nc(/C=C/c3ccc(N(c4ccccc4)c4ccccc4)cc3)cc(/C=C/c3ccc(N(c4ccccc4)c4ccccc4)cc3)n2)cc1

SMILES: COC(=O)c1ccc2ccc3cccc4ccc1c2c34
absorption maximum (in C1CCOC1): 379 nm
absorption maximum (in CC#N): 379 nm
absorption maximum (in CCCCCC): 379 nm
absorption maximum (in CCO): 380 nm
absorption maximum (in CN(C)C=O): 380 nm
absorption maximum (in CO): 379 nm
absorption maximum (in Cc1ccccc1): 381 nm
absorption maximum (in ClCCl): 379 nm

absorption maximum (in ClCCl): 386 nm
SMILES: N#Cc1cc(/C=C/c2ccc(N(c3ccccc3)c3ccccc3)cc2)ccc1-c1ccc(/C=C/c2ccc(N(c3ccccc3)c3ccccc3)cc2)cc1C#N

absorption maximum (in C1CCOC1): 316 nm
SMILES: CC(C)(C)c1ccc(-c2c(-c3ccc(N(c4ccccc4)c4ccccc4)cc3)cc(-c3ccc(N(c4ccccc4)c4ccccc4)cc3)c(-c3ccc(C(C)(C)C)cc3)c2-c2ccc(C(C)(C)C)cc2)cc1

absorption maximum (in ClCCl): 300 nm
SMILES: Cc1cc2ccccc2c2c1c1ccccc1n2C

absorption maximum (in C1CCOC1): 424 nm
absorption maximum (in CC#N): 424 nm
absorption maximum (in CCCCCCC): 418 nm
absorption maximum (in CS(C)=O): 435 nm
absorption maximum (in ClCCl): 427 nm
SMILES: CN(C)c1ccc(/C=C/c2cnc3ccccc3n2)cc1

absorption maximum (in C1CCCCC1): 257.4 nm
SMILES: Cc1ccc(-c2ccccc2)cc1

absorption maximum (in ClCCl): 354 nm
SMILES: CN1CCN(c2cccc(/C=C/c3ncc(-c4ccc(OCc5ccccc5)c(OCc5ccccc5)c4)o3)c2)CC1

absorption maximum (in ClCCl): 520 nm
SMILES: COc1ccc(C#Cc2c3ccccc3c(C#Cc3ccc(OC)cc3)c3cc4sc(C)cc4cc23)cc1

absorption maximum (in CCO): 387 nm
SMILES: Cc1c(COC(=O)c2ccc(I)cc2)n2c(OCC(=O)c3ccc(I)cc3)c(C)c(=O)n2c1=O

absorption maximum (in ClCCl): 376 nm
SMILES: CCOC(=O)/N=c1/oc2cc(OC)cc(OC)c2cc1C#N

absorption maximum (in CC#N): 324 nm
SMILES: COc1ccc(-n2nc(C#N)c(N3CCOCC3)n2)cc1

absorption maximum (in ClCCl): 326 nm
SMILES: O=C1c2cccc3cc(C#CC#Cc4cc5c6c(cccc6c4)C(=O)N(c4ccccc4)C5=O)cc(c23)C(=O)N1c1ccccc1

SMILES: N#Cc1c(-n2c3ccc(Br)cc3c3cc(Br)ccc32)c(-n2c3ccc(Br)cc3c3cc(Br)ccc32)c(C#N)c(-n2c3ccc(Br)cc3c3cc(Br)ccc32)c1-n1c2ccc(Br)cc2c2cc(Br)ccc21
absorption maximum (in Cc1ccccc1): 339 nm

SMILES: CCOC(=O)COc1ccc(/C=C/C2=C3c4ccccc4C(c4[nH]c(C)cc4C)=[N+]3[B-](F)(F)n3c(C)cc(C)c32)cc1
absorption maximum (in C1CCOC1): 608 nm
absorption maximum (in CC#N): 602 nm
absorption maximum (in CCCCCC): 608 nm
absorption maximum (in CO): 603 nm
absorption maximum (in Cc1ccccc1): 614 nm
absorption maximum (in ClCCl): 608 nm

SMILES: CC(C)(C)c1ccc2c(c1)c1cc(C(C)(C)C)ccc1n2-c1ccc(S(=O)(=O)c2ccc(-n3c4ccc(C(C)(C)C)cc4c4cc(C(C)(C)C)ccc43)cn2)nc1
absorption maximum (in Cc1ccccc1): 365.77 nm

SMILES: CC/C=C/C=C/C=C/C=C/CCCCCCCC(=O)O
absorption maximum (in C1COCCO1): 317.3 nm
absorption maximum (in CCCCCC): 313.5 nm
absorption maximum (in CCCCCCCCCC): 315.3 nm
absorption maximum (in CCCCO): 315.2 nm
absorption maximum (in CCO): 313.8 nm
absorption maximum (in CCOCC): 313.5 nm
absorption maximum (in CO): 313 nm
absorption maximum (in ClC(Cl)Cl): 319.6 nm
absorption maximum (in c1ccccc1): 320 nm

absorption maximum (in CC#N): 701 nm
SMILES: CC(=O)OC[C@H]1O[C@@H](OCC#Cc2ccc(C3=C4C(C)=CC(/C=C/c5ccc(N(C)C)cc5)=[N+]4[B-](F)(F)n4c(/C=C/c5ccc(N(C)C)cc5)cc(C)c43)cc2)[C@H](OC(C)=O)C(OC(C)=O)[C@@H]1OC(C)=O (stereo partly drawn)

absorption maximum (in ClCCl): 447 nm
SMILES: COCCOCCOCCOCC(COCCOCCOCCOC)Oc1cc(/C=C/c2ccc(/C=C/[N+](=O)[O-])cc2)c(OC(COCCOCCOCCOC)COCCOCCOCCOC)cc1/C=C/c1ccc(/C=C/[N+](=O)[O-])cc1

SMILES: CCC1=C(C)C2=C(c3ccc(-c4c5ccccc5c(-c5ccccc5)c5ccccc45)cc3)c3c(C)c(CC)c(C)n3[B-](F)(F)[N+]2=C1C
absorption maximum (in CC#N): 523 nm
absorption maximum (in CCCCCC): 526 nm
absorption maximum (in CCO): 525 nm
absorption maximum (in CN(C)C=O): 526 nm
absorption maximum (in Cc1ccccc1): 529 nm
absorption maximum (in ClCCl): 527 nm

absorption maximum (in CO): 695 nm
absorption maximum (in CS(C)=O): 703 nm
SMILES: CCC1=C(C)C2=Cc3c4ccccc4c4n3[B-](c3cc[n+](C)cc3)(Oc3ccccc3-4)[N+]2=C1C=Cc1ccc(OC)cc1 (stereo not drawn)

SMILES: c1ccc2c(c1)[nH]c1c3[nH]c4ccccc4c3c3nsnc3c21
absorption maximum (in CN(C)C=O): 410 nm
absorption maximum (in Cc1ccccc1): 410 nm
absorption maximum (in ClCCl): 410 nm

absorption maximum (in C1CCCCC1): 341 nm
absorption maximum (in C1COCCO1): 343 nm
absorption maximum (in CC#N): 341 nm
absorption maximum (in CC(C)(C)O): 347 nm
absorption maximum (in CC(C)O): 345 nm
absorption maximum (in CCCCCC): 340 nm
absorption maximum (in CCCCO): 346 nm
absorption maximum (in CCOC(C)=O): 342 nm
absorption maximum (in CN(C)C=O): 344 nm
absorption maximum (in CO): 346 nm
absorption maximum (in ClCCl): 344 nm
SMILES: O=C1Nc2ccccc2/C1=C/C(=O)c1ccc([N+](=O)[O-])cc1

absorption maximum (in C1CCOC1): 347.38 nm
SMILES: COC(=O)c1ccc(C#Cc2c3c(c4c(-c5ccccc5)c(-c5ccccc5)c(-c5ccccc5)c(-c5ccccc5)c4c2-c2ccc(C(=O)OC)cc2)CC(C(=O)OC)(C(=O)OC)C3)cc1

absorption maximum (in CO): 505 nm
absorption maximum (in ClC(Cl)Cl): 545 nm
SMILES: Cc1nc2c(ccc3c2sc(/C=C/c2ccc(N4CCN(C)CC4)cc2)[n+]3C)s1

absorption maximum (in CO): 396 nm
SMILES: Cc1cc(C)c(B(c2cc(-c3ccc(C(C)(C)C)cc3)sc2-c2sc(-c3ccc(C(C)(C)C)cc3)cc2P(=O)(c2ccccc2)c2ccccc2)c2c(C)cc(C)cc2C)c(C)c1

absorption maximum (in C1CCOC1): 360 nm
SMILES: C1=Cc2ccccc2C(=Cc2ccc(C=C3c4ccccc4-c4ccccc43)cc2)c2ccccc21

SMILES: CCC1=C(C)C2=C(c3c4ccccc4c(-c4ccccc4)c4ccccc34)c3c(C)c(CC)c(C)n3[B-](F)(F)[N+]2=C1C
absorption maximum (in CC#N): 528 nm
absorption maximum (in CCCCCC): 531 nm
absorption maximum (in CCO): 529 nm
absorption maximum (in CN(C)C=O): 530 nm
absorption maximum (in Cc1ccccc1): 534 nm
absorption maximum (in ClCCl): 532 nm

absorption maximum (in CO): 430 nm
SMILES: C(=C\c1c[nH]cn1)/c1cc[n+]2ccc(/C=C/c3c[nH]cn3)cc2c1

absorption maximum (in CS(C)=O): 297 nm
SMILES: Cc1cc2c(cc1C)NC(=O)CC(=O)N2
